Experiments:
[1] = UV visible spectroscopy of supernatant after addition of composite resin powder; assay type: binding; settings: 306 nm methyl salicylate, 272 nm thymol
Protocol: (§1) To analyze how the different tested molecules (methyl salicylate, thymol and spearmint oil) interact with composite and the tooth structure UV Visible spectroscopy was used. Dilute solutions of the three tested molecules were prepared. […] The resulting solutions were analyzed in triplicates using UV visible spectrophotometer (Evolution 200 series, Thermo Scientific, Madison, USA) and the resulting absorbance peaks were plotted as control (FIG. 1). After this, equal weights of composite resin and hydroxy-apatite powders were added to equal volumes of the diluted solutions of the three tested molecules.
(§2) The characterization of the interaction between the staining components and both composite resin and the tooth structure was performed using UV visible spectroscopy which was chosen to characterize indirectly the insoluble powder; a method that is largely used in pharmaceutical industry. In this method, different weights of insoluble polymer are added to a known concentration of a solute with a clear fingerprint in UV-vis spectrum. After each addition, the filtered solutions are then analyzed using UV-vis spectrophotometer and the resultant effect on the UV spectrum is compared to the baseline readings.

[2] = UV visible spectroscopy of supernatant after addition of hydroxy-apatite powder; assay type: binding; settings: 306 nm MeSa, 272 nm thymol
Protocol: as §1, §2

SMILES	decrease of main absorbance peak ([1]; 0.3 g composite resin) [%]	decrease of main absorbance peak ([1]; 0.5 g composite resin) [%]	decrease of main absorbance peak ([1]; 0.8 g composite resin) [%]	change of main absorbance peak ([2]; 0.3 g hydroxy-apatite) [%]	change of main absorbance peak ([2]; 0.5 g hydroxy-apatite) [%]	change of main absorbance peak ([2]; 0.8 g hydroxy-apatite) [%]
Cc1ccc(C(C)C)c(O)c1 [thymol]	47±17	55±1.2	66±2.9	14±3.3	10±9.2	7±1.6
COC(=O)c1ccccc1O [methyl salicylate]	37±3.9	38±25	85±12	13±22	11±14	1.1±15

From patent US11510852B2 (THE ROYAL INSTITUTION FOR THE ADVANCEMENT OF …, priority 2019, dated 2022)
